# Measured values published in patent US8859599B2, “Androgen receptor modulating compounds, preparation and uses thereof” (priority 2009, dated 2014).
# Read-outs that look alike come from different tables or passages of the source.
# Tests used:
# LNCaP cells [1] = test: Sulforhodamine B (SRB) in vitro chemosensitivity assay on LNCaP cells; format: cell-based; conditions: for LC50: read-out: cytocidal effects by 50% (LC50), LNCaP cells, 144 h exposure; for LC50 / cytocidal effects by 50% (LC50): n.r. = not reached
# Protocol: (§1) Sulforhodamine B (SRB) assay was used according to the method by Skehan et al. (JNCI, 1990). Briefly, cells were collected by trypsinization, counted and plated at a density of 5,000 cells/well in 96-well flat-bottomed microtiter plates (100 μl of cell suspension/well). In the chemosensitivity assay, experiments were run in octuplicate, and each experiment was repeated three times. The optical density (OD) of cells was determined at a wavelength of 490 nm by a colorimetric plate reader.
# (§2) Growth inhibition and cytocidal effect of drugs were calculated according to the formula reported by Monks et al. (JNCI, 1991): [(ODtreated−ODzero)/(ODcontrol−ODzero)]×100%, when ODtreated is > to ODzero. If ODtreated is above ODzero, treatment has induced a cytostatic effect, whereas if ODtreated is below ODzero, cell killing has occurred. The ODzero depicts the cell number at the moment of drug addition, the ODcontrol reflects the cell number in untreated wells and the ODtreated reflects the cell number in treated wells on the day of the assay. TUNEL Assay
# The authors examined the antitumour activity of the compounds for which the synthesis is described above, in the hormone-sensitive prostate cancer cell line LNCaP. (R)-Bicalutamide and the novel compounds were tested at the increasing concentrations of […]. The highest dose used was chosen on the basis of the clinically achievable peak plasma concentration reported in the literature for bicalutamide (Cockshott I D. Clin Pharmacokinet. 2004; 43 (13) 855-78).
# After 144-hr exposure time, the cytotoxic effect of the molecules was calculated according to the method of Monks et al. (Monks A, et al., J. Nat. Cancer Inst. 1991; 83: 757-66).
# PC-3 = test: SRB cytotoxicity on PC-3 cells; format: cell-based, human; conditions: PC-3 cells (no AR), 144 h exposure
# Protocol: (§3) Finally, compounds were also tested on HepG2 cells, originally isolated from a primary hepatoblastoma of a child, purchased from ATCC.
# as §1, §2
# (§4) The authors tested the antitumour activity of the compounds also on PC-3 and DU145 cancer cell lines, representative of hormone-refractory prostate cancer due to AR receptor absence.
# DU145 = test: SRB cytotoxicity on DU145 cells; format: cell-based, human; conditions: DU145 cells (no AR), 144 h exposure
# Protocol: as §3, §1, §2, §4
# LNCaP cells [2] = test: TUNEL assay of apoptotic cells in LNCaP; format: cell-based, human; conditions: 144-h exposure, 20.0 μM
# Protocol: Cells were fixed in 1% paraformaldehyde in PBS on ice for 15 min, suspended in ice cold ethanol (70%) and stored overnight at −20° C. Cells were then washed twice in PBS and resuspended in PBS containing 0.1% Triton X-100 for 5 min at 4° C. Thereafter, samples were incubated in 50 μl of solution containing TdT and FITC-conjugated dUTP deoxynucleotides 1:1 (Roche Diagnostic GmbH, Mannheim, Germany) in a humidified atmosphere for 90 min at 37° C. in the dark, washed in PBS, counterstained with propidium iodide (2.5 μg/ml, MP Biomedicals, Verona, Italy) and RNAse (10 Kunits/ml, Sigma Aldrich, Milan, Italy) for 30 min at 4° C. in the dark and analyzed by flow cytometry.
# After the end of drug exposures, medium was removed and cells were detached from the flasks by trypsin treatment, washed twice with PBS and stained according to the different methods specified below. Flow cytometric analysis was performed using a FACS Canto flow cytometer (Becton Dickinson, San Diego, Calif.). Data acquisition and analysis were performed using FACSDiva software (Becton Dickinson). Samples were run in triplicate and 10,000 events were collected for each replica. Data were the average of three experiments, with errors under 5%.
# The cells, before TUNEL assay, were continuously exposed to the anti-androgen compounds for 144 hours at the concentration of 20.0 μM.
# LNCaP-AR cells = test: TUNEL assay of apoptotic cells in LNCaP-AR; format: cell-based, human; conditions: LNCaP-AR, 144-h exposure, 20.0 μM, TUNEL
# HepG2 cells = test: Cytotoxic activity on hepatoblastoma cell line HepG2; format: cell-based, human; conditions: up to highest concentration tested
# Protocol: as §3, §1, §2
# The authors evaluated in vitro the potential hepato-toxicity of some of the novel compounds on HepG2 cell line, a human hepatoblastoma cell line that retains the specialized function of normal hepatocytes [Knowles B B, et al., Science 1980, 209:497-499; Aden D P, et al., Nature, 1979, 282:615-616].
# [3] = target: T1, human androgen receptor (hAR) (Homo sapiens, UniProt P10275); test: hAR transactivation assay (ARE-luciferase reporter) in Cos-7 cells; format: cell-based
# T1 construct: The cDNA coding hAR was cloned into the pSG5 expression vector as reported previously; expressed in transfected cells; host or cells: Cos-7 cells transiently transfected with pSG5-hAR
# T1 sequence (P10275 1-920): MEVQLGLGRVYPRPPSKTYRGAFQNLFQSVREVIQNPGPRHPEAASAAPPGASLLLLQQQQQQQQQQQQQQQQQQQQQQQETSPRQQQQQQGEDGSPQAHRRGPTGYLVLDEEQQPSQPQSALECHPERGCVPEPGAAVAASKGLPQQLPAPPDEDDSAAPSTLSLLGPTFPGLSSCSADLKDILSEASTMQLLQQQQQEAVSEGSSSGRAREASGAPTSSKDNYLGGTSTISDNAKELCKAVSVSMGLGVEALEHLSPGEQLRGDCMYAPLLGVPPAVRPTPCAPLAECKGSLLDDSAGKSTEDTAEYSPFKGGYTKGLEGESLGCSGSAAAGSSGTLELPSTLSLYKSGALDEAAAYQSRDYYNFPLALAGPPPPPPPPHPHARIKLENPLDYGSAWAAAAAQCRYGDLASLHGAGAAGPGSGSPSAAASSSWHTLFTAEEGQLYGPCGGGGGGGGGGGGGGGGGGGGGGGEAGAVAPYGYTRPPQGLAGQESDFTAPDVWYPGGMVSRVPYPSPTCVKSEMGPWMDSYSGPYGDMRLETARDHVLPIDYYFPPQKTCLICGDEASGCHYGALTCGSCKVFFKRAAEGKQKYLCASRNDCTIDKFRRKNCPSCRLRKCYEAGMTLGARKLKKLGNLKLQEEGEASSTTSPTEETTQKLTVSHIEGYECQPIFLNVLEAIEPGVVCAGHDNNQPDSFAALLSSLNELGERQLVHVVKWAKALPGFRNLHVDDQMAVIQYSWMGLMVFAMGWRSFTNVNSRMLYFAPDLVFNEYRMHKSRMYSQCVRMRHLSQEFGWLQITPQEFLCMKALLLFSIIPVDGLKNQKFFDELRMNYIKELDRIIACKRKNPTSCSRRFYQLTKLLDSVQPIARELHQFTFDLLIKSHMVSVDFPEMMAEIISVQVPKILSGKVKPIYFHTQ
# Protocol: The cDNA coding hAR was cloned into the pSG5 expression vector as reported previously [Chang, C. S., et al., Science (1988)240:324-326]. The 3416 construct (ARE-Luc), containing four copies of the wild-type slp-HRE2 (5′-TGGTCAgccAGTTCT-3′) (SEQ ID No. 1) was cloned in the NheI site in pTK-TATA-Luc [Verrijdt, G. et al., J. Biol. Chem. (2000)275:12298-12305].
# For androgen-stimulated transcriptional analysis, 32×10^4 Cos-7 cells were plated in phenol red-free DMEM containing 5% charcoal-stripped serum. After 48 h, the cells were transfected by Superfect (Qiagen) with 0.3 μg of 3416-pTK-TATA-Luc construct, together with 1.5 μg of either pSG5-empty plasmid or pSG5-hAR expressing plasmid. After 18 h, transfected cells were stimulated for 24 h with 10 nM of the synthetic androgen, R1881 (from Perkin-Elmer; dissolved in 0.001% ethanol, final concentration), in the absence or presence of the indicated concentrations of synthetic compounds. When indicated, the synthetic compounds were added alone to the cell medium. […] It was dissolved in 0.001% (final concentration) ethanol. Control cells were treated with the vehicle alone. Lysates were prepared and the luciferase activity was measured using a luciferase assay system (Promega). The results were corrected using CH110-expressed beta-galactosidase activity (Amersham Biosciences) and luciferase activity was expressed as fold induction. Results were obtained from two or three different experiments, each performed in duplicate. Mean and SEM are shown.
# [4] = tested on: normal stem cells derived from human peripheral blood stem cells; test: Colony-forming cell assay (GM-CFU); format: cell-based; conditions: highest concentration tested, 14 days incubation
# Protocol: The colony-forming cell assay was used as previously described [Motta M R et al., Exp Hematol 1997; 25:1261-1269]. In brief, for each molecule, 5×10^4 cells were plated in duplicate in a complete culture medium (MethoCult H4434, StemCell Technologies, Vancouver, Canada) containing different concentrations (0.2, 2, and 20 μmol/l) of the compound. After 14 days of incubation in a humidified atmosphere of 5% CO2 at the temperature of 37° C., granulocyte macrophage colony-forming unit (GM-CFU) aggregates of more than 50 cells were counted. Control cells were incubated under the same conditions but in drug-free medium.
# The authors also evaluated the potential toxicity of some of the novel compounds in normal cells as the ability of the drugs to inhibit clonogenic growth of normal stem cells derived from human peripheral blood stem cells (FIG. 37). The exposure of hematopoietic precursor to the compounds, caused low ((S)-37) or negligible (, (R)-22, (R)-23, (R)-10) toxicity at the highest concentration tested.
# [5] = Homo sapiens, LNCaP, 144 h, read-out: Growth inhibition (GI50), LNCaP cells, 144 h exposure
Compound,"LC50 (LNCaP cells [1]; Homo sapiens, LNCaP, 144 h)","cytocidal (cell killing) activity (LNCaP cells [1]; LNCaP cells, 144 h exposure)","GI50 (LNCaP cells [1]; read-out: Growth inhibition (GI50), LNCaP cells, 144 h exposure)",cytotoxic properties compared to effects on LNCaP and LNCaP-AR cells (PC-3),cytotoxic properties compared to effects on LNCaP and LNCaP-AR cells (DU145),Apoptotic cells (%) (LNCaP cells [2]),Apoptotic cells (%) (LNCaP-AR cells),GI50 (LNCaP cells [1]; [5]),"cytostatic effect: suppression of cell growth (LNCaP cells [1]; LNCaP cells, 144 h, highest concentration tested)",potential hepato-toxicity (HepG2 cells),"inhibition of androgen-induced transcriptional activation (antagonistic activity) ([3]; cells challenged with 10 nM R1881, compound at 10 μM)","agonistic activity, compound alone ([3]; range between 100 nM-10 μM)",toxicity: inhibition of clonogenic growth of hematopoietic precursors [4],"cytocidal effects by 50% (LC50) (LNCaP cells [1]; LNCaP cells, 144 h exposure)","GI50 (LNCaP cells [1]; Homo sapiens, LNCaP cells, 144 h exposure, read-out: Growth inhibition (GI50))"
N#Cc1ccc(NC(=O)[C@@](N)(CS(=O)(=O)c2ccc(F)cc2)c2ccccc2)cc1C(F)(F)F [(R)-9],15 µM,cytocidal activity,1.6 µM,significant reduction in their cytotoxic proprieties,significant reduction in their cytotoxic proprieties,93.5%,83.5%,–,–,–,–,–,–,–,–
"CC(C)(C)S(=O)(=O)N[C@@](C)(CS(=O)(=O)c1ccc(F)cc1)C(=O)Nc1ccc(C#N)c(C(F)(F)F)c1 [(R)-22, (R)—N-(4-cyano-3-(trifluoromethyl)phenyl)-2-(1,1-dimethylethylsulfonamido)-3-(4-fluorophenylsulfonyl)-2-methylpropanamide]",20 µM,–,–,–,–,–,–,5.8 µM,suppress completely the cell growth,negligible toxicity,antagonistic activity,functions as agonist,negligible,–,–
"C[C@](N)(CS(=O)(=O)c1ccc(F)cc1)C(=O)Nc1ccc(C#N)c(C(F)(F)F)c1 [(R)-23, (R)-2-amino-N-(4-cyano-3-(trifluoromethyl)phenyl)-3-(4-fluorophenylsulfonyl)-2-methyl propanamide]",–,–,–,–,–,–,–,10.6 µM,–,negligible toxicity,–,–,negligible,n.r.,–
"C[C@](O)(CS(=O)(=O)c1ccc(F)cc1)C(=O)Nc1ccc(C#N)c(C(F)(F)F)c1 [(R)-Bicalutamide, reference compound]",–,–,–,–,–,2.1%,1.0%,–,–,–,–,–,–,n.r.,1.8 µM
CC(C)(C)S(=O)(=O)N[C@](C)(CS(=O)(=O)c1ccc(F)cc1)C(=O)Nc1ccc(C#N)c(C(F)(F)F)c1 [(S)-22],19.8 µM,cytocidal activity,–,significant reduction in their cytotoxic proprieties,significant reduction in their cytotoxic proprieties,6.2%,0.0%,7 µM,–,–,–,–,–,–,–
Cc1ccc(S(=O)(=O)N[C@](C)(CS(=O)(=O)c2ccc(F)cc2)C(=O)Nc2ccc(C#N)c(C(F)(F)F)c2)cc1 [(S)-26],18.3 µM,–,–,significant reduction in their cytotoxic proprieties,significant reduction in their cytotoxic proprieties,77.5%,91.6%,6.3 µM,–,–,–,–,–,–,–
